# In patent EP4050002A1, “ANTI-PROLIFERATIVE AGENTS” (First Health Pharmaceuticals B.V., priority 2021, dated 2022):
# pIC50: −log10 of the molar value.
# Columns and labels:
# [1] = system: H9; experiment: Cytotoxicity, cell viability; conditions: Homo sapiens; H9, 72 hours of incubation, ATP-based method
# Protocol: The anti-tumor activity of the compounds of the present invention was evaluated as the effect on the proliferation and survival of tumor cells by counting the number of living cells in presence or absence of the compounds ("cell count method"), and as the effect on the viability and metabolic activity of the cells, by using particular substrates that are converted by cellular enzymes into coloured or luminescent products, proportionally with metabolic activity and state of the cell, such as the MTS tetrazolium compound ("MTS method") or luciferin ("ATP-based method") respectively.
# Cells were seeded at 3 to 5 x 10^4 cells/well density depending on cell lines and maintained at 37°C in 5% CO2. After 24 hours cells were treated with ascending concentrations of the investigational compounds and the reference (5-fluoro-Uracyl) in a range from 0 to 100 µM. […] After 72 h of incubation with compounds, the cells were detached with trypsin and re-suspended in 1 ml of complete medium; the cell number was evaluated using a Z2 Coulter Counter ("cell count method") (Attallah and Johnson, A simple highly sensitive methods for the determination of cell viability using an electronic particle analyzer, Coulter counter J. Immunol. Methods. 1981, 41, 155; Leonardi et al., Activated kinase screening identifies the IKBKE oncogene as a positive regulator of autophagy. Autophagy, 2019, 15, 312). […]
# [2] = system: Triple negative breast cancer (cell line MDA-MB-231); experiment: Subcutaneous xenograft mice model; format: in vivo, nude FOXN1nu/nu mice; conditions: MDA-MB-231 xenograft, 45 mg/Kg I.P. every Monday, Wednesday and Friday for 5 weeks
# Protocol: (§1) Human cancer cell lines were inoculated subcutaneously in nude FOXN1^nu/nu mice (Envigo spa) in both flanks.
# (§2) The number of cells inoculated varied between different cell lines: • A549 and A549 Red-FLuc: 5 x 10^6 in medium:matrigel (1:1 v/v) • MDAMB231: 2.8 x 10^6 in medium:matrigel (1:2 v/v)
# (§3) When tumors reach the appropriate volume for each cell line, the compounds were administered I.P. every 48 hours, 3 times a week every Monday, Wednesday and Friday for 5 weeks, at a dose selected from the PK study, as follows: • vehicle: 10% DMSO, 5% TWEEN 80 and WFI (85%) • treatment group dose: 45 mg/kg • control group: vehicle only • dose concentration: 12 mg/ml in 10% DMSO, 5% TWEEN 80 and WFI (85%) • volume: 5 ml/kg
# (§4) Tumor volume was evaluated twice a week with caliper and calculated with the standard formula (Length ^∗ Height ^∗ Height)/2. Mice were weighed twice a week. Tumor growth is calculated with respect to the first day of treatment (day 0) as ratio between the volume at each day of measurement and day 0.
# [3] = system: Non-small cell lung cancer (cell line A549); experiment: Subcutaneous xenograft mice model; format: in vivo, nude FOXN1nu/nu mice; conditions: 45 mg/Kg I.P. every Monday, Wednesday and Friday for 5 weeks
# Protocol: as §1, §2, §3, §4
# [4] = system: Non-small cell lung cancer engineered with a luciferase reporter (cell line A549 Red-FLuc); experiment: Subcutaneous xenograft mice model; format: in vivo, nude FOXN1nu/nu mice; conditions: 45 mg/Kg I.P. every Monday, Wednesday and Friday for 5 weeks
# Protocol: as §1, §2, §3, §4
# [5] = biological target: T1, CYP3A4 (Homo sapiens, UniProt P08684); experiment: Cytochrome P450 inhibition; format: in vitro ADME; conditions: 3A4, Human Liver Microsome
# T1 construct: 158 µl of Human Liver Microsome working stock solution; from tissue; host or cells: human liver microsomes
# T1 sequence (P08684 whole entry): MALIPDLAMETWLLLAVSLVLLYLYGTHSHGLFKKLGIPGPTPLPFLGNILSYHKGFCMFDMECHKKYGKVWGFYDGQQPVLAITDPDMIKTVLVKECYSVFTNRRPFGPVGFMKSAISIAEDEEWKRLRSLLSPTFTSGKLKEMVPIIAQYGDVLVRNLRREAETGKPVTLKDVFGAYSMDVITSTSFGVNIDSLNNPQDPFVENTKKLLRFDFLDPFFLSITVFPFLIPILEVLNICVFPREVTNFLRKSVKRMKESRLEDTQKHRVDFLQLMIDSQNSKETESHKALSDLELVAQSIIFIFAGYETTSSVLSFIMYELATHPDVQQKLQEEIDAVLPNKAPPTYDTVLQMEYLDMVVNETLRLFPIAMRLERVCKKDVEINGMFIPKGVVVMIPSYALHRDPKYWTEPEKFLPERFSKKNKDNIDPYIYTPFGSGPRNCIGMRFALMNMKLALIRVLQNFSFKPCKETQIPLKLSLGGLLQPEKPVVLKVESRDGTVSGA
# Protocol: (§5) Ready to use PBS, 9.07-10.00 g, (Sigma Aldrich, catalogue code P3813) was dissolved in […] MilliQ water and pH was adjusted to 7.4.
# (§6) Substrate pool was done pooling 14 µl of Phenacitin 10 mM (CYP1A2 substrate, Sigma Aldrich, catalogue number 7740), 14 µl Diclofenac 10 mM (CYP2C9 substrate, Sigma Aldrich, catalogue number D6899), 14 µl Dextromethorphan 10 mM (CYP2D6 substrate, Sigma Aldrich, catalogue number D9684), 20.28 µl Midazolam 2.76 mM (CYP3A4 substrate, Sigma Aldrich, catalogue number UC430) and 14 µl Bupropion HCl 10 mM (CYP2B6 substrate, Sigma Aldrich, catalogue number B102), and diluted to 2800 µl with PBS buffer pH 7.4.
# (§7) Inhibitors of the cytochromes tested were the following: Alpha-naphthoflavone (CYP1A2, Sigma Aldrich, catalogue number N5757); Sulfaphenazole (CYP2C9, Sigma Aldrich, catalogue number S0758); Ticlopidine (CYP2B6, Sigma Aldrich, catalogue number T6654); Quinidine (CYP2D6, Sigma Aldrich, catalogue number Q3625); Ketoconazole (CYP3A4, Sigma Aldrich, catalogue number K1003).
# (§8) 158 µl of Human Liver Microsome working stock solution in PBS buffer pH7.4 was added to reaction plate (0.253 mg/ml, 158 µl/well).
# (§9) Test compounds and inhibitors were prepared in DMSO and diluted with buffer to prepare working solution with the final concentration of 3000, 999, 333, 111, 37 and 12 µM. 2 µl of working solution of the test compounds or inhibitors listed above were added to reaction plate (2 µl/ well). For control, 2 µl of Acetonitrile containing DMSO (without inhibitor) was added to reaction plate. 20 µl of substrate pool was added to all the wells of the reaction plate. The samples were mixed using the vortex and pre-incubated at 37°C for 5 min.
# (§10) The NADPH solution 10 mM in PBS buffer pH 7.4 was pre-warmed at 37°C for 5 min. 20 µl of pre-warmed NADPH solution was added to the reaction plate and then incubated at 37°C for 10 min.
# (§11) The reaction was terminated by adding cold ACN (200 µl/well) to the reaction mixture and centrifuged at 4,000 rpm for 20 minutes.
# (§12) After centrifugation, 200 µl of supernatant was submitted for LC-MS/MS analysis. Mobile phases include 0.1% formic acid in water and methanol:acetonitrile, 50% (v/v).
# (§13) Column is Phenomenex kinetic C18, 50 x 4.6 mm, […]. IC50 values were calculated using Graphpad Prism (version 4.03).
# [6] = biological target: T2, CYP1A2 (Homo sapiens, UniProt P05177); experiment: Cytochrome P450 inhibition; format: in vitro ADME; conditions: 1A2, Human Liver Microsome
# T2 construct: 158 µl of Human Liver Microsome working stock solution; from tissue; host or cells: human liver microsomes
# T2 sequence (P05177 whole entry): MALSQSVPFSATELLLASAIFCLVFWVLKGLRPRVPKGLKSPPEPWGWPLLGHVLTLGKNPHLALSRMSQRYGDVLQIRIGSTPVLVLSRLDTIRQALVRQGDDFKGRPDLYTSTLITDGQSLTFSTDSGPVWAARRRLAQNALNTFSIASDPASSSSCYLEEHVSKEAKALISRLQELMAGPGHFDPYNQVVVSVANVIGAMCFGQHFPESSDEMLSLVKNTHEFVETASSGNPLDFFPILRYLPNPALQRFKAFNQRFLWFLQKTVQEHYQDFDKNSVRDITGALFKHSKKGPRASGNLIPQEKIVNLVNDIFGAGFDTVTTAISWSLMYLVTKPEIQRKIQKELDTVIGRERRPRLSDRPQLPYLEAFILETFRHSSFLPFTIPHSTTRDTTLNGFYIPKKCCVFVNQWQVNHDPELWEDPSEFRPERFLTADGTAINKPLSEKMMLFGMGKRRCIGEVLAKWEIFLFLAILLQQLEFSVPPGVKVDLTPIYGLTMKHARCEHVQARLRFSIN
# Protocol: as §5, §6, §7, §8, §9, §10, §11, §12, §13
# [7] = biological target: T3, CYP2D6 (Homo sapiens, UniProt P10635); experiment: Cytochrome P450 inhibition; format: in vitro ADME; conditions: 2D6, Human Liver Microsome
# T3 construct: 158 µl of Human Liver Microsome working stock solution; from tissue; host or cells: human liver microsomes
# T3 sequence (P10635 whole entry): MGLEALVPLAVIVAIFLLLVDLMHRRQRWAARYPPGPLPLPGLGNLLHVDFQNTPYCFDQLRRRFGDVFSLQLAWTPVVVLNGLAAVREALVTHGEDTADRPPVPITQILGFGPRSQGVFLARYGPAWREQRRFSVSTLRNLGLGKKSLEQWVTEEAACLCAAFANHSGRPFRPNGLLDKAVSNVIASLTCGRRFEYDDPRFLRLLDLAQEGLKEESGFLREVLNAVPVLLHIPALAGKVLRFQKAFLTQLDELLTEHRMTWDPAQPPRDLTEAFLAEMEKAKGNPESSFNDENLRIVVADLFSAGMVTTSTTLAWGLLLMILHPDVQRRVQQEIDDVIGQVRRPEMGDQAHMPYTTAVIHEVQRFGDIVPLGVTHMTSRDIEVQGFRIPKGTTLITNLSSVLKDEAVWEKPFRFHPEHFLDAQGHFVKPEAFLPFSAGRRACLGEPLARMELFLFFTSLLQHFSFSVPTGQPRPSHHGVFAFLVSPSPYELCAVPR
# Protocol: as §5, §6, §7, §8, §9, §10, §11, §12, §13
# [8] = biological target: T4, CYP2B6 (Homo sapiens, UniProt P20813); experiment: Cytochrome P450 inhibition; format: in vitro ADME; conditions: 2B6, Human Liver Microsome
# T4 construct: 158 µl of Human Liver Microsome working stock solution; from tissue; host or cells: human liver microsomes
# T4 sequence (P20813 whole entry): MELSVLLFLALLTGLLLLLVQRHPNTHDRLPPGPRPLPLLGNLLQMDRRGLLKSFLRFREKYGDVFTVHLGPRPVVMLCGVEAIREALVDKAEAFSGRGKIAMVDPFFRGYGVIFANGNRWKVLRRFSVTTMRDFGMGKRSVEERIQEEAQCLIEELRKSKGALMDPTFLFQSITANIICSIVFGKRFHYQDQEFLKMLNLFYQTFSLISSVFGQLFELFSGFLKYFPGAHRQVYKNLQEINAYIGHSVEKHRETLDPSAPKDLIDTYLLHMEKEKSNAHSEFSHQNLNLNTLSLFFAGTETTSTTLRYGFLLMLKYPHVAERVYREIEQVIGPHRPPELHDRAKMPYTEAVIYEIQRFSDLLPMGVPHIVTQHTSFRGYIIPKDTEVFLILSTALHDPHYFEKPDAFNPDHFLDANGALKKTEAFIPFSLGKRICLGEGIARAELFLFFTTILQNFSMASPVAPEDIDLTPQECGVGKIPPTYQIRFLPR
# Protocol: as §5, §6, §7, §8, §9, §10, §11, §12, §13
# [9] = biological target: T5, CYP2C9 (Homo sapiens, UniProt P11712); experiment: Cytochrome P450 inhibition; format: in vitro ADME; conditions: 2C9, Human Liver Microsome
# T5 construct: 158 µl of Human Liver Microsome working stock solution; from tissue; host or cells: human liver microsomes
# T5 sequence (P11712 whole entry): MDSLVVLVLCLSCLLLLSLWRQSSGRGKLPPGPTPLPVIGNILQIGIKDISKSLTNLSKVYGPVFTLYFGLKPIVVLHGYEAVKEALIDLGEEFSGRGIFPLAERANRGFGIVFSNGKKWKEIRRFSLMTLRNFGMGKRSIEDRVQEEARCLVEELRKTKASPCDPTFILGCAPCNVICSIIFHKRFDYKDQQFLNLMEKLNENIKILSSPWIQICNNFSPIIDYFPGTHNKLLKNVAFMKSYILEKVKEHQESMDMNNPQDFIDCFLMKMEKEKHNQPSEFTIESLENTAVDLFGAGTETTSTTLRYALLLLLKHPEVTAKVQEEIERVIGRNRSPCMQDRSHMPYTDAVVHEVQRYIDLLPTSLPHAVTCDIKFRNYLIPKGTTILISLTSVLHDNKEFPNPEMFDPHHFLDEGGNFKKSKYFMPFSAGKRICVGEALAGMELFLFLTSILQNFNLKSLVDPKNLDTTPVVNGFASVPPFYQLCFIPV
# Protocol: as §5, §6, §7, §8, §9, §10, §11, §12, §13
smiles,measurement,setting,value
CCCCc1cn(-c2ccc(-c3nnc(-c4ccccc4C(F)(F)F)o3)cc2)nn1 [Compound 5],pIC50,[1],4.30
same,tumor growth,[2],counteract tumor growth
same,tumor growth,[3],counteract tumor growth
same,tumor growth,[4],counteract tumor growth
same,pIC50,[5],< 4.52
same,pIC50,[6],< 4.52
same,pIC50,[7],< 4.52
same,pIC50,[8],< 4.52
same,pIC50,[9],< 4.52
